According to patent US9932637B2, “Genetic polymorphisms associated with cardiovascular disorders and drug response, methods of detection and uses thereof” (CELERA CORPORATION, priority 2003, dated 2018):
Values joined by “and” are separate entries in the source; they are usually repeats but may differ in a detail not shown here. Equal values may be shown once.

Test system: patients with prior myocardial infarction (CARE study)
Assay: CARE aligned analysis (prospective and case/control design, white males): association of genotypes with pravastatin efficacy (Tables 13, 15)
Assay type: in vivo, human
Conditions: for Pravastatin Patients n/total / Pravastatin Patients (%) / 2 Rare Alleles (%), Pravastatin Patients: F&NF MI; for Pravastatin Patients n/total / Pravastatin Patients (%): WM; for Pravastatin vs placebo odds ratio, 0 rare alleles / Pravastatin vs placebo odds ratio, 1 rare allele / Pravastatin vs placebo odds ratio, 2 rare alleles / 2 rare alleles n/total (%), pravastatin patients: CARE, F MI/SD/NF MI; for Pravastatin vs. Placebo Odds Ratio (95% CI), Patients with 0 Rare Alleles / n/total (%) cases, Pravastatin Patients, 0 Rare Alleles: PON1 hCV2548962, 0 rare alleles; for Pravastatin vs. Placebo Odds Ratio (95% CI), Patients with 0 Rare Alleles / n/total (%) cases, Pravastatin Patients, 0 Rare Alleles / Pravastatin vs. Placebo Odds Ratio (95% CI), Patients with 1 Rare Allele / n/total (%) cases, Pravastatin Patients, 1 Rare Allele / Pravastatin vs. Placebo Odds Ratio (95% CI), Patients with 2 Rare Alleles / n/total (%) cases, Pravastatin Patients, 2 Rare Alleles: White Males; for Pravastatin vs. Placebo Odds Ratio (95% CI), Patients with 1 Rare Allele / n/total (%) cases, Pravastatin Patients, 1 Rare Allele: PON1 hCV2548962, 1 rare allele
Method: The data presented in Table 8 based on an association of genotypes with pravastatin efficacy of the CARE samples were further analyzed and presented in Table 13. The further analysis was performed to align the data obtained from the analysis of the CARE samples, which was a prospective study, to the analysis of the WOSCOP samples, which was a case/control study. Table 13 also presents an analysis of the association of genotypes with pravastatin efficacy in the WOSCOPs samples. Relative to the analysis performed on the data presented in Table 8, there are two significant differences to determine if the SNP influenced pravastatin efficacy. Data obtained from the CARE samples were separated by study design into two groups, those in the prospective study design group and those in the case/control study design group. The original care study contained 16 protocol defined cardiovascular disease defined endpoints and 150 other phenotypes. […] The control groups used to compare the data were also divided into two groups, the “all possible” control group and the “cleaner” control group. […] Because the participants in the WOSCOPs trial were all white males, only data obtained from white males in the CARE study were analysed. Data from the “all possible” and “cleaner” controls were compared to data obtained from the cases in the prospective study design while only data from “cleaner” controls were compared to cases in the case/control study design. The data from the case/control cohorts were analysed using conditional logistic regression (as opposed to logistic regression used for the original anaylsis).
The anaylsis was refined as described for both Tables 13 and 14.

[1] = NPC1 hCV7490135, 0 Rare Alleles, CARE Prospective, Cleaner controls
[2] = NPC1 hCV7490135, 1 Rare Allele, CARE Prospective, Cleaner controls
[3] = NPC1 hCV25472673, 0 Rare Alleles, CARE Case/Control, Cleaner controls
[4] = NPC1 hCV25472673, 0 Rare Alleles, CARE Prospective, Cleaner controls
[5] = NPC1 hCV25472673, 1 Rare Allele, CARE Case/Control, Cleaner controls
[6] = NPC1 hCV25472673, 1 Rare Allele, CARE Prospective, Cleaner controls
[7] = PLAB hCV7494810, 0 Rare Alleles, CARE Case/Control, All Possible controls
[8] = PLAB hCV7494810, 0 Rare Alleles, CARE Case/Control, Cleaner controls
[9] = PLAB hCV7494810, 0 Rare Alleles, CARE Prospective, All Possible controls
[10] = PLAB hCV7494810, 1 Rare Allele, CARE Case/Control, All Possible controls
[11] = PLAB hCV7494810, 1 Rare Allele, CARE Case/Control, Cleaner controls
[12] = PLAB hCV7494810, 1 Rare Allele, CARE Prospective, All Possible controls
[13] = PLAB hCV7494810, Case/Control, listed as Pravastatin
[14] = PLAB hCV7494810, Prospective, listed as Pravastatin
[15] = CARE Case/Control, Fatal & Nonfatal MI, Cleaner controls
[16] = CARE Prospective, Fatal & Nonfatal MI, Cleaner controls
[17] = CARE Prospective, Total CHD Events, All Possible controls
[18] = PON1 hCV2548962, 2 rare alleles, CARE Case/Control, Fatal & Nonfatal MI, Cleaner controls
[19] = PON1 hCV2548962, 2 rare alleles, CARE Prospective, Fatal & Nonfatal MI, Cleaner controls

CC[C@H](C)C(=O)O[C@H]1C[C@H](O)C=C2C=C[C@H](C)[C@H](CC[C@@H](O)C[C@@H](O)CC(=O)O)[C@H]21 [pravastatin]
Pravastatin Patients n/total (NOS3 hCV3219460, 1 Rare Allele, CARE Prospective, Cleaner controls): 64/366 | Pravastatin vs placebo odds ratio, 0 rare alleles (NOS3 hCV3219460, Case/Control): 0.76 and 0.67 | Pravastatin vs placebo odds ratio, 1 rare allele (NOS3 hCV3219460, Case/Control): 1.04 and 0.98 | Pravastatin vs placebo odds ratio, 2 rare alleles (NOS3 hCV3219460, Case/Control): 0.27 and 0.23 | Pravastatin vs placebo odds ratio, 0 rare alleles (NOS3 hCV3219460, Prospective): 0.79 and 0.70 | Pravastatin vs placebo odds ratio, 1 rare allele (NOS3 hCV3219460, Prospective): 1.04 and 0.95 | Pravastatin vs placebo odds ratio, 2 rare alleles (NOS3 hCV3219460, Prospective): 0.27 and 0.22 | Pravastatin Patients (%) [1]: (18.3%) | Pravastatin Patients n/total [1]: 44/240 | Pravastatin Patients (%) [2]: (13.7%) | Pravastatin Patients n/total [2]: 56/408 | 2 Rare Alleles (%), Pravastatin Patients (NPC1 hCV7490135, CARE Prospective): (13.8%) | Pravastatin Patients (%) [3]: (17.4%) | Pravastatin Patients n/total [3]: 53/304 | Pravastatin Patients (%) [4]: (17.3%) | Pravastatin Patients n/total [4]: 53/307 | Pravastatin Patients (%) [5]: (13.5%) | Pravastatin Patients n/total [5]: 51/378 | Pravastatin Patients (%) [6]: (13.2%) | Pravastatin Patients n/total [6]: 51/386 | 2 Rare Alleles (%), Pravastatin Patients (NPC1 hCV25472673, CARE Case/Control): (15.0%) | 2 Rare Alleles (%), Pravastatin Patients (NPC1 hCV25472673, CARE Prospective): (14.7%) | 2 rare alleles n/total (%), pravastatin patients (NPC1 hCV25472673, Case/Control): (12.6%) | Pravastatin vs placebo odds ratio, 0 rare alleles (NPC1 hCV25472673, Case/Control): 1.21 | Pravastatin vs placebo odds ratio, 1 rare allele (NPC1 hCV25472673, Case/Control): 0.65 | Pravastatin vs placebo odds ratio, 2 rare alleles (NPC1 hCV25472673, Case/Control): 0.34 | 2 rare alleles n/total (%), pravastatin patients (NPC1 hCV25472673, Prospective): (8.7%) | Pravastatin vs placebo odds ratio, 0 rare alleles (NPC1 hCV25472673, Prospective): 1.25 | Pravastatin vs placebo odds ratio, 1 rare allele (NPC1 hCV25472673, Prospective): 0.71 and 0.62 | Pravastatin vs placebo odds ratio, 2 rare alleles (NPC1 hCV25472673, Prospective): 0.49 and 0.34 | Pravastatin Patients (%) [7]: (12.2%) | Pravastatin Patients n/total [7]: 84/691 | Pravastatin Patients (%) [8]: (17.5%) | Pravastatin Patients n/total [8]: 84/481 | Pravastatin Patients (%) [9]: (11.9%) | Pravastatin Patients n/total [9]: 84/706 | Pravastatin Patients (%) [10]: (8.5%) | Pravastatin Patients n/total [10]: 38/448 | Pravastatin Patients (%) [11]: (12.6%) | Pravastatin Patients n/total [11]: 38/302 | Pravastatin Patients (%) [12]: (8.4%) | Pravastatin Patients n/total [12]: 38/455 | 2 Rare Alleles (%), Pravastatin Patients (PLAB hCV7494810, CARE Prospective): (6.9%) | 2 rare alleles n/total (%), pravastatin patients (PLAB hCV7494810, Case/Control): (8.3%) | Pravastatin vs placebo odds ratio, 0 rare alleles (PLAB hCV7494810, Case/Control): 0.95 | Pravastatin vs placebo odds ratio, 0 rare alleles [13]: 1.03 | Pravastatin vs placebo odds ratio, 1 rare allele [13]: 0.50 and 0.44 | Pravastatin vs placebo odds ratio, 2 rare alleles [13]: 1.62 and 1.45 | 2 rare alleles n/total (%), pravastatin patients (PLAB hCV7494810, Prospective): (8.3%) | Pravastatin vs placebo odds ratio, 0 rare alleles (PLAB hCV7494810, Prospective): 0.93 | Pravastatin vs placebo odds ratio, 0 rare alleles [14]: 1.03 | Pravastatin vs placebo odds ratio, 1 rare allele [14]: 0.52 and 0.46 | Pravastatin vs placebo odds ratio, 2 rare alleles [14]: 1.61 and 1.24 | Pravastatin vs. Placebo Odds Ratio (95% CI), Patients with 0 Rare Alleles [15]: 0.84 (0.58 to 1.22) | n/total (%) cases, Pravastatin Patients, 0 Rare Alleles [15]: 67/416 (16.1%) | Pravastatin vs. Placebo Odds Ratio (95% CI), Patients with 0 Rare Alleles [16]: 0.81 (0.56 to 1.16) | n/total (%) cases, Pravastatin Patients, 0 Rare Alleles [16]: 67/423 (15.8%) | Pravastatin vs. Placebo Odds Ratio (95% CI), Patients with 0 Rare Alleles [17]: 0.77 (0.61 to 0.98) | n/total (%) cases, Pravastatin Patients, 0 Rare Alleles [17]: 183/613 (29.9%) | Pravastatin vs. Placebo Odds Ratio (95% CI), Patients with 1 Rare Allele [15]: 0.63 (0.42 to 0.95) | n/total (%) cases, Pravastatin Patients, 1 Rare Allele [15]: 50/335 (14.9%) | Pravastatin vs. Placebo Odds Ratio (95% CI), Patients with 1 Rare Allele [16]: 0.64 (0.31 to 1.36) | n/total (%) cases, Pravastatin Patients, 1 Rare Allele [16]: 50/340 (14.7%) | Pravastatin vs. Placebo Odds Ratio (95% CI), Patients with 1 Rare Allele [17]: 0.94 (0.58 to 1.54) | n/total (%) cases, Pravastatin Patients, 1 Rare Allele [17]: 151/504 (30.0%) | ORs of fatal or non-fatal MI when treated with pravastatin (PON1 hCV2548962, 2 rare alleles, CARE and WOSCOPs sample sets): 0.28-0.34 | Pravastatin vs. Placebo Odds Ratio (95% CI), Patients with 2 Rare Alleles [18]: 0.29 (0.12 to 0.71) | n/total (%) cases, Pravastatin Patients, 2 Rare Alleles [18]: 9/79 (11.4%) | Pravastatin vs. Placebo Odds Ratio (95% CI), Patients with 2 Rare Alleles [19]: 0.32 (0.11 to 0.95) | n/total (%) cases, Pravastatin Patients, 2 Rare Alleles [19]: 9/80 (11.3%) | Pravastatin vs. Placebo Odds Ratio (95% CI), Patients with 2 Rare Alleles (PON1 hCV2548962, 2 rare alleles, CARE Prospective, Total CHD Events, All Possible controls): 0.28 (0.13 to 0.60)
